Laboratory results reported in patent US20190307811A1, “METHOD FOR TREATING AIRWAYS DISEASE” (HUDSON INSTITUTE OF MEDICAL RESEARCH, priority 2016, published 2019).

What was measured:
[1] = test system: bleomycin (BLM)-induced model of pulmonary fibrosis; test: Lung inflammation score, bleomycin-induced pulmonary fibrosis model; assay type: in vivo; conditions: BLM-injured mice, treatment days 22-28
Protocol: (§1) The following is relevant to Example 10. A bleomycin (BLM)-induced model of pulmonary fibrosis was established in mice (n=49). Mice were intranasally (IN) administered with 20 μg of bleomycin sulphate (Hospira, Melbourne, Victoria, Australia) in 50 μl of saline (equivalent to 400 μg/ml; 25 μl per nare) on days 0 and 7. For control mice (n=7), however, instead of BLM, they were given IN administration (50 μL per mouse) of 0.9% w/v saline on days 0 and 7. All mice were then left untreated for a further two weeks (until day 21).
(§2) On day 22 (1 day following completion of induction of the BLM-induced pulmonary fibrosis model), mice were lightly anaesthetized with isoflurane (Baxter Health Care, NSW, Australia) and held in a semi-supine position while IN administration of the appropriate treatment took place. The following treatments were administered daily or once-weekly to mice, from days 22-28.
(§3) BLM alone (injury control group): a-sub-group of mice (n=7) received 50 μL of phosphate buffered saline (PBS; the vehicle for Pirfenidone, AECs and AEC-derived exosomes; 25 μL per nare) daily, using an automatic pipette from days 22-28,
(§4) Pirfenidone: a separate sub-group of mice (n=7) received 1 mg of Pirfenidone (Tocris Bioscience, Noble Park, Victoria, Australia) per day (equivalent to 50 mg/kg/day) by twice daily oral gavage, from days 22-28. […]

[2] = test system: bleomycin (BLM)-induced model of pulmonary fibrosis; test: Interstitial fibrosis, bleomycin-induced pulmonary fibrosis model; assay type: in vivo; conditions: BLM-injured mice, treatment days 22-28
Protocol: as §1, §2, §3, §4

[3] = test system: bleomycin (BLM)-induced model of pulmonary fibrosis; test: Subepithelial ECM/collagen deposition, bleomycin-induced pulmonary fibrosis model; assay type: in vivo; conditions: BLM-injured mice, treatment days 22-28
Protocol: as §1, §2, §3, §4

[4] = test system: α-SMA-stained myofibroblasts; test: Subepithelial myofibroblast accumulation (α-SMA IHC), chronic OVA-induced AAD model; assay type: in vivo, Balb/c mice; conditions: OVA-treated mice; OVA alone 1.72±0.07, saline 0.44±0.13
Protocol: (§5) To assess the individual vs combined effects of MSCs, AECs and RLX (serelaxin) in chronic AAD, a chronic model of ovalbumin (OVA)-induced AAD was established in mice (n=36). Mice were sensitized with two i.p. injections of 10 μg of Grade V chicken egg OVA (Sigma-Aldrich, Mo., USA) and 400 μg of aluminium potassium sulphate adjuvant (alum; AJAX Chemicals, NSW, Australia) in 500 μl of 0.9% w/v normal saline solution (Baxter Health Care, NSW, Australia) on day 0 and day 14. […]
(§6) IHC was used to detect TGF-β1 (using a polyclonal antibody; sc-146; Santa Cruz Biotechnology, Santa Cruz, Calif., USA; 1:1000 dilution), α-smooth muscle actin (α-SMA; a marker of myofibroblast differentiation; using a monoclonal antibody; M0851; DAKO Antibodies, Glostrup, Denmark; 1:200 dilution) and thymic stromal lymphopoietin (TSLP; a marker for epithelial damage; using a polyclonal antibody; ABT330; EMD Millipore Corp'. Temecula, Calif., USA; 1:1000 dilution). Primary antibody staining was detected using the DAKO EnVision anti-rabbit or anti-mouse kits and 3,3′-Diaminobenzidine (DAB) chromogen, while negative controls, which were exposed to the EnVision kits in the absence of any primary antibody, were also included. […]

[5] = test system: goblet cells; test: Goblet cell metaplasia (ABPAS staining), chronic OVA-induced AAD model; assay type: in vivo, Balb/c mice; conditions: OVA-treated mice; OVA alone 4.83±0.20, saline 1.62±0.32
Protocol: (§7) To assess the individual vs combined effects of MSCs, AECs and RLX (serelaxin) in chronic AAD, a chronic model of ovalbumin (OVA)-induced AAD was established in mice (n=36). Mice were sensitized with two i.p. injections of 10 μg of Grade V chicken egg OVA (Sigma-Aldrich, Mo., USA) and 400 μg of aluminium potassium sulphate adjuvant (alum; AJAX Chemicals, NSW, Australia) in 500 μl of 0.9% w/v normal saline solution (Baxter Health Care, NSW, Australia) on day 0 and day 14. They were then challenged by whole body inhalation exposure (nebulization) to aerosolized OVA (2.5% w/v in 0.9% w/v normal saline) for thirty minutes, three times a week, between days 21 and 63, using an ultrasonic nebulizer (Omron NE-U07; Omron, Kyoto, Japan). Control mice (n=6) were given i.p injections of 500 μl 0.9% w/v saline and nebulized with 0.9% w/v saline instead of OVA.
(§8) On day 64 (1 day following completion of induction of the chronic AAD model), mice were lightly anaesthetized with isoflurane (Baxter Health Care, NSW, Australia) and held in a semisupine position while intranasal administration of the appropriate treatment took place. […]

[6] = test system: thymic stromal lymphopoietin (TSLP); test: TSLP immunohistochemistry (epithelial damage), chronic OVA-induced AAD model; assay type: in vivo, Balb/c mice; conditions: OVA-treated mice; OVA alone 4.61±0.53, saline 1.00±0.30
Protocol: as §5, §6

[7] = test system: chronic model of ovalbumin (OVA)-induced AAD; test: Peri-bronchial inflammation score, chronic OVA-induced AAD model; assay type: in vivo, Balb/c mice; conditions: scale 0 to 4; OVA-treated mice, intranasal treatment days 64-77; OVA alone 1.70±0.60, saline 0.15±0.40
Protocol: Six-to-eight week-old female Balb/c mice were obtained from Monash Animal Services (Monash University, Clayton, Victoria, Australia) and housed under a controlled environment, on a 12 hour light/12 hour dark lighting cycle with free access to water and lab chow (Barastock Stockfeeds, Pakenham, Victoria, Australia). All mice were provided an acclimatization period of 4-5 days before any experimentation.
as §7, with “OVA. […]” for “OVA.”

[8] = test system: chronic model of ovalbumin (OVA)-induced AAD; test: Epithelial thickness (Masson's trichrome), chronic OVA-induced AAD model; assay type: in vivo, Balb/c mice; conditions: relative to BM length; OVA-treated mice; OVA alone 21.20±0.60, saline 16.89±0.76
Protocol: as §7, §8

[9] = test system: chronic model of ovalbumin (OVA)-induced AAD; test: Hydroxyproline assay of total lung collagen concentration, chronic OVA-induced AAD model; assay type: in vivo, Balb/c mice; conditions: collagen content/dry weight, OVA alone 3.82±0.10, saline 2.84±0.11
Protocol: as §7, with “OVA. […]” for “OVA.”
The second largest lung lobe from each mouse was processed as previously described (Royce et al. (2009) supra; Royce et al. (2014) supra; Royce et al. (2015) supra) for the measurement of hydroxyproline content, which was determined from a standard curve of purified trans-4-hydroxy-L-proline (Sigma-Aldrich). […]

[10] = test system: chronic model of ovalbumin (OVA)-induced AAD; test: Subepithelial collagen deposition (Masson's trichrome), chronic OVA-induced AAD model; assay type: in vivo, Balb/c mice; conditions: OVA-treated mice; OVA alone 26.26±1.37, saline 8.07±0.58
Protocol: as §7, §8

[11] = test system: chronic model of ovalbumin (OVA)-induced AAD; test: AHR by invasive plethysmography (methacholine), chronic OVA-induced AAD model; assay type: in vivo, Balb/c mice; conditions: airway resistance to nebulized methacholine; vs OVA group
Protocol: as §7, with “OVA. […]” for “OVA.”
On day 78 (24 hours after the final intranasal administration of PBS or various treatments detailed), mice were anesthetized with an i.p injection of ketamine 10 mg/kg and xylazine 2 mg/kg BW (in 0.9% w/v saline). […] The airway resistance of each mouse was then measured (reflecting changes in AHR) in response to increasing doses of nebulized acetyl-β-methylcholine chloride (methacholine; Sigma Aldrich, Mo., USA), delivered intratracheally, from 3.125-50 mg/ml over 5 doses, to elicit bronchoconstriction. […]

[12] = test system: TGF-β1; test: Airway epithelial TGF-β1 immunohistochemistry, chronic OVA-induced AAD model; assay type: in vivo, Balb/c mice; conditions: relative to saline-treated controls expressed as 1; OVA alone 10.65±0.81
Protocol: as §5, §6

| Compound | bleomycin-induced lung inflammation (inflammation score) [1] | bleomycin-induced increase in interstitial fibrosis [2] | bleomycin-induced increase in subepithelial ECM/collagen deposition [3] | number of α-SMA-stained myofibroblasts in the subepithelial layer [4] [per 100 μm BM length] | goblet cell count [5] | number of TSLP-positive cells within the airway epithelium [6] | peri-bronchial inflammation score [7] | epithelial thickness [8] [μm^2] | total lung collagen concentration [9] [%] | subepithelial collagen (relative to basement membrane length) [10] [μm] | decrease of AHR [11] [%] | epithelial TGF-β1 expression [12] |
| --- | --- | --- | --- | --- | --- | --- | --- | --- | --- | --- | --- | --- |
| Cc1ccc(=O)n(-c2ccccc2)c1 [pirfenidone, Pirfenidone] | only partially reduce | normalized | no effect | – | – | – | – | – | – | – | – | – |
| Serelaxin [RLX] | – | – | – | 1.08±0.10 | 5.08±0.25 goblet cells/100 μm BM length | 3.14±0.34 per 100 μm of BM length | 1.55±0.83 | 18.19±0.74 | 3.08±0.23 | 18.27±2.26 | ~50 | 5.85±1.42 |
